pKi: −log10 of the molar value. Where a name gives a salt, the structure may show the parent alone.
Biological target: T1, human alpha 1a adrenergic receptor (Homo sapiens, UniProt P35348)
T1 sequence (P35348 1-466): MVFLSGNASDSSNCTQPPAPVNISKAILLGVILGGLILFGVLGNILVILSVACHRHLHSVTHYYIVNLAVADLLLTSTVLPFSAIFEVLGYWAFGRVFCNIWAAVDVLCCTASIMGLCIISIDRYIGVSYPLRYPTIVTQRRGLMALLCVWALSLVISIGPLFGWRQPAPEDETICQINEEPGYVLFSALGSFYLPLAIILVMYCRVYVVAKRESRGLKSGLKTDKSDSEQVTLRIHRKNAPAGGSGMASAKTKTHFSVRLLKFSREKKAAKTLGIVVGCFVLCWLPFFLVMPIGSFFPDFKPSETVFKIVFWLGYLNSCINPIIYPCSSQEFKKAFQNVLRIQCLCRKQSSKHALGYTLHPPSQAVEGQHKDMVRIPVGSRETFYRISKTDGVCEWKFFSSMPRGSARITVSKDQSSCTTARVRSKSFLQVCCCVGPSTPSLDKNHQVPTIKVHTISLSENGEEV
Assay: Screening assay: alpha 1a adrenergic receptor binding ([125I]-HEAT competition)
Details: membranes from stably transfected human alpha 1a cell line (ATCC CRL 11140), 100 pM [125I]-HEAT
Protocol: Screening Assay: Alpha 1a Adrenergic Receptor Binding
These competition binding reactions (total volume=200 μl) contained 50 mM Tris-HCl pH. […] Reactions were incubated at room temperature for one hour with shaking. Reactions were filtered onto Whatman GF/C glass fiber filters with a Inotec 96 well cell harvester. Filters were washed three times with ice cold buffer and bound radioactivity was determined (Ki).

Row | SMILES | pKi
1 | Cc1ccc(C2(c3ccc(C)cc3)NC(=O)N(CCCN3CCC4(CC3)C(=O)Nc3ccccc34)C2=O)cc1 [Compound 21, 3-{3-(spiro[3H-indole-3,4′-piperidin]-2(1H)-on-1′-yl)propyl}-5,5-bis(4-methylphenyl)-imidazolin-2,4-dione hydrochloride] | > 7.70
2 | Cc1ccc(C2(c3ccc(C)cc3)NC(=O)N(CCCN3CCC4(CC3)OC(=O)N(C)c3ccc(Cl)cc34)C2=O)cc1 [Compound 8, 3-{3-(1-methyl-6-chloro-spiro[4H-3,1-benzoxazine-4,4′-piperidin]-2(1H)-on-1′yl)propyl}5,5-bis(4-methylphenyl)-imidazolin-2,4-dione] | > 7.70
3 | Cc1ccc(C2(c3ccc(C)cc3)NC(=O)N(CCCN3CCC(c4ccc(F)cc4C#N)CC3)C2=O)cc1 [Compound 26] | > 7.70
4 | Cc1ccc(C2(c3ccc(C)cc3)NC(=O)N(CCCN3CCC4(CC3)OC(=O)Nc3ccc(Cl)cc34)C2=O)cc1 [Compound 7, 3-{3-(6-chloro-spiro[4H-3,1-benzoxazine-4,4′-piperidin]-2(1H)-on-1′-yl)propyl}-5,5-bis(4-methylphenyl)-imidazolin-2,4-dione] | > 7.70
5 | N#CC1(c2ccccc2)CCN(CCCN2C(=O)NC(c3ccc(Cl)cc3)(c3ccc(Cl)cc3)C2=O)CC1 [Compound 10, 3-{3-[4-phenyl-4-cyanopiperidin-1-yl]propyl}-5,5-bis(4-chlorophenyl)-imidazolin-2,4-dione hydrochloride] | > 7.70
6 | Cc1ccc(C2(c3ccc(C)cc3)NC(=O)N(CCCN3CCC4(CC3)OC(=O)Nc3ccc(F)cc34)C2=O)cc1 [Compound 23, 3-{3-(6-fluoro-spiro[4H-3,1-benzoxazine4,4′-piperidin]-2(1H)-on-1′-yl)propyl}bis(4-methylphenyl)-imidazolin-2,4-dione] | > 7.70
7 | Cc1ccc(C2(c3ccc(C)cc3)NC(=O)N(CCCN3CCC4(CC3)OC(=O)N(CC(F)(F)F)c3ccc(Cl)cc34)C2=O)cc1 [Compound 29, 3-{3-[1-(2,2,2-trifluoroethyl)-6-chloro-spiro[4H-3,1-benzoxazine-4,4′-piperidin]-2(1H)-on-1′-yl]propyl}-5,5-bis(4-methylphenyl)-imidazolin-2,4-dione] | > 7.70
8 | Cc1ccc(C2(c3ccc(C)cc3)NC(=O)N(CCCN3CCC4(CC3)OC(=O)Nc3ccccc34)C2=O)cc1 [Compound 6, 3-{3-(spiro[4H-3,1-benzoxazine-4,4′-piperidin]-2(1H)-on-1′-yl)propyl}-5,5-bis(4-methylphenyl)-imidazolin-2,4-dione] | > 7.70
9 | Cc1ccc(C2(c3ccc(C)cc3)NC(=O)N(CCCN3CCC4(CC3)C(=O)Cc3ccccc34)C2=O)cc1 [Compound 5, 3-{3-(2,3-dihydro-spiro[indeno-1,4′-piperidin]-2(3H)-on-1′-yl)propyl}-5,5-bis(4-methylphenyl)-imidazolin-2,4-dione] | > 7.70
10 | CCCCCC1(c2ccc(F)c(F)c2)NC(=O)N(CCCN2CCC(C#N)(c3ccccc3C)CC2)C1=O (racemic) [Compound 17, (+/−)-3-{3-[4-(2-methylphenyl)-4-cyanopiperidin-1-yl]propyl}-5-pentyl-5-(3,4-difluoro-phenyl)-imdazolin-2,4-dione hydrochloride] | > 7.70
11 | CN1C(=O)OC2(CCN(CCCN3C(=O)NC(c4ccc(Cl)cc4)(c4ccc(Cl)cc4)C3=O)CC2)c2cc(Cl)ccc21 [Compound 14, 3-{3-(1-methyl-6-chloro-spiro[4H-3,1-benzoxazine-4,4′-piperidin]-2(1H)-on-1′-yl)propyl}1-5,5-bis(4-chlorophenyl)-imidazolin-2,4-dione] | > 7.70
12 | Cc1ccc(C2(c3ccc(C)cc3)NC(=O)N(CCCN3CCC4(CC3)OC(=O)N(C)c3ccccc34)C2=O)cc1 [Compound 9] | > 7.70

The next lines start with the values.

Row | pKi | SMILES
13 | > 7.70 | Cc1ccccc1C1(C#N)CCN(CCCN2C(=O)NC(c3ccc(F)cc3)(c3ccc(F)cc3)C2=O)CC1 [Compound 12, 3-{3-[4-(2-methylphenyl)-4-cyanopiperidin-1-yl]propyl}-5,5-bis(4-fluorophenyl)-imidazolin-2,4-dione hydrochloride]
14 | > 7.70 | Cc1ccc(C2(c3ccc(C)cc3)NC(=O)N(CCCN3CCN(c4ccccc4C(N)=O)CC3)C2=O)cc1 [Compound 25, 3-{3-[4-(2-aminocarbonylphenyl)-piperazin-1-yl]propyl}-5,5-bis(4-methylphenyl)-imidazolin-2,4-dione dihydrochloride]
15 | > 7.70 | Cc1ccc(C2(c3ccc(C)cc3)NC(=O)N(CCCN3CCN(c4ccccc4C#N)CC3)C2=O)cc1 [Compound 27, 3-{3-[4-(2-cyanophenyl)-piperazin-1-yl]propyl}-5,5-bis(4-methylphenyl)-imidazolin-2,4-dione hydrochloride]
16 | > 7.70 | Cc1ccc(C2(c3ccc(C)cc3)NC(=O)N(CCCN3CCC(C#N)(c4ccccc4)CC3)C2=O)cc1 [Compound 1, 3-[3-(4-Phenyl-4-cyanopiperidin-1-yl)propyl]-5,5-bis(4-methylphenyl)-imidazolin-2,4-dione]
17 | > 7.70 | Cc1ccc(C2(C(C)C)NC(=O)N(CCCN3CCC(C#N)(c4ccccc4C)CC3)C2=O)cc1 (racemic) [Compound 31, (+/−)-3-{3-[4-(2-methylphenyl)4-cyanopiperidin-1-yl]propyl}-5-isopropyl-5-(4-methylphenyl)-imidazolin-2,4-dione hydrochloride]
18 | > 7.70 | Cc1ccc(C2(c3ccc(C)cc3)C(=O)N(CCCN3CCC(C#N)(c4ccccc4C)CC3)C(=O)N2C)cc1 [Compound 36, 1-Methyl-3-{3-[4-(2-methylphenyl)-4-cyanopiperidin-1-yl]propyl}-bis-5,5-(4-methylphenyl)-imidazolin-2,4-dione]
19 | > 7.70 | Cc1ccc(C2(c3ccccc3)NC(=O)N(CCCN3CCC(C#N)(c4ccccc4)CC3)C2=O)cc1 (racemic) [Compound 11, (+/−)-3-{3-[4-phenyl4-cyanopiperidin-1-yl]propyl-}5-(4-methylphenyl)-5-phenyl-imidazolin-2,4-dione trifluoroacetate]
20 | > 7.70 | Cc1ccc(C2(c3ccc(C)cc3)NC(=O)N(CCCCN3CCC4(C=Cc5ccccc54)CC3)C2=O)cc1 [Compound 28, 3-{4-(spiro[indeno-1,4′-piperidin]-1′-yl)butyl}-5,5-bis(4-methylphenyl)-imidazolin-2,4-dione]
21 | > 7.70 | Cc1ccc(C2(c3ccc(C)cc3)NC(=O)N(CCCN3CCC4(C=Cc5ccccc54)CC3)C2=O)cc1 [Compound 4, 3-{3-(spiro[1H-indeno-1,4′-piperidin]-1′-yl)propyl}-5,5-bis(4-methylphenyl)-imidazolin-2,4-dione]
22 | > 7.70 | Cc1ccc(C2(c3ccc(C)cc3)NC(=O)N(CCCN3CCC(c4ccccn4)CC3)C2=O)cc1 [Compound 3, 3-{3-[4-(2-Pyridyl)piperidin-1-yl]propyl}-5,5-bis(4-methylphenyl)-imidazolin-2,4-dione]
23 | > 7.70 | Cc1ccc(C2(c3ccccn3)NC(=O)N(CCCN3CCC(C#N)(c4ccccc4C)CC3)C2=O)cc1 (racemic) [Compound 13, (+/−)-3-{3-[4-(2-methylphenyl)-4-cyanopiperidin-1-yl]propyl}-5-(4-methylphenyl)-5-(2-pyridyl)-imidazolin-2,4-dione]
24 | > 7.70 | CCCCCC1(c2ccc(C)cc2)NC(=O)N(CCCN2CCC(C#N)(c3ccccc3C)CC2)C1=O (racemic) [Compound 16]
